Measured values reported in PubChem BioAssay AID248 (DTP/NCI, 2004).
“And” between values parts separate entries of the source, which are not always exact repeats. Identical values can stand only once. Inconclusive results and toxic doses are left out. No stated cut-off is given here; in the data, active means T/C of 150% or more; inactive means T/C below 125%.

System: L1210 leukemia ip in BDF1 mice, survival T/C
Experiment: NCI In Vivo Anticancer Drug Screen. Data for tumor model L1210 Leukemia (intraperitoneal) in B6D2F1 (BDF1) mice
Conditions: endpoint: mean survival time, higher = longer survival
Method in brief: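 Each compound was tested against a transplantable tumor grown in mice. The endpoint was survival, with treated animals benchmarked against vehicle controls as a simple ratio.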

[1] = dose: 25.0 mg/kg/injection, schedule: Q01DX001 (ip), vehicle: saline
[2] = dose: 100.0 mg/kg/injection, schedule: Q04DX003 (ip), vehicle: Klucel (hydroxypropylcellulose) (HPC)
[3] = dose: 200.0 mg/kg/injection, schedule: Q04DX003 (ip), vehicle: Klucel (hydroxypropylcellulose) (HPC)
[4] = dose: 400.0 mg/kg/injection, schedule: Q04DX003 (ip), vehicle: Klucel (hydroxypropylcellulose) (HPC)
[5] = dose: 100.0 mg/kg/injection, schedule: Q04DX002 (ip), vehicle: Klucel (hydroxypropylcellulose) (HPC)
[6] = dose: 200.0 mg/kg/injection, schedule: Q04DX002 (ip), vehicle: Klucel (hydroxypropylcellulose) (HPC)
[7] = dose: 100.0 mg/kg/injection, schedule: Q01DX009 (ip), vehicle: saline with Tween-80
[8] = dose: 200.0 mg/kg/injection, schedule: Q01DX009 (ip), vehicle: saline with Tween-80
[9] = dose: 100.0 mg/kg/injection, schedule: Q04DX003 (ip), vehicle: saline with Tween-80
[10] = dose: 200.0 mg/kg/injection, schedule: Q04DX003 (ip), vehicle: saline with Tween-80
[11] = dose: 400.0 mg/kg/injection, schedule: Q04DX003 (ip), vehicle: saline with Tween-80
[12] = dose: 50.0 mg/kg/injection, schedule: Q01DX009 (ip), vehicle: saline with Tween-80

Measured: T/C

CCCCCCCCCCCCCCCCCC[N+](C)(C)C (tested in a mixture with another compound)
inactive: dose: 0.2 mg/kg/injection, schedule: Q01DX015 (ip), vehicle: saline 104 % of control | dose: 0.5 mg/kg/injection, schedule: Q01DX015 (ip), vehicle: saline 98 % of control | dose: 1.0 mg/kg/injection, schedule: Q01DX009 (ip), vehicle: saline 108 % of control | dose: 1.0 mg/kg/injection, schedule: Q01DX015 (ip), vehicle: saline 104 % of control | dose: 2.0 mg/kg/injection, schedule: Q01DX009 (ip), vehicle: saline 100 % of control | dose: 2.0 mg/kg/injection, schedule: Q01DX015 (ip), vehicle: carboxymethylcellulose (CMC) 96 % of control | dose: 2.0 mg/kg/injection, schedule: Q01DX015 (ip), vehicle: saline 94 % of control and 103 % of control | dose: 3.0 mg/kg/injection, schedule: Q04DX003 (ip), vehicle: saline sonified 93 % of control | dose: 4.0 mg/kg/injection, schedule: Q01DX009 (ip), vehicle: saline 108 % of control | dose: 4.0 mg/kg/injection, schedule: Q01DX015 (ip), vehicle: carboxymethylcellulose (CMC) 93 % of control | dose: 4.0 mg/kg/injection, schedule: Q01DX015 (ip), vehicle: saline 96 % of control | dose: 5.0 mg/kg/injection, schedule: Q01DX015 (ip), vehicle: saline 103 % of control | dose: 6.0 mg/kg/injection, schedule: Q04DX003 (ip), vehicle: saline sonified 103 % of control | dose: 8.0 mg/kg/injection, schedule: Q01DX009 (ip), vehicle: saline 97 % of control | dose: 8.0 mg/kg/injection, schedule: Q01DX015 (ip), vehicle: saline 94 % of control | dose: 10.0 mg/kg/injection, schedule: Q01DX015 (ip), vehicle: saline 91 % of control | dose: 12.5 mg/kg/injection, schedule: Q01DX009 (ip), vehicle: saline 101 % of control | dose: 16.0 mg/kg/injection, schedule: Q04DX003 (ip), vehicle: saline 105 % of control | [1] 117 % of control | dose: 25.0 mg/kg/injection, schedule: Q01DX009 (ip), vehicle: saline 95 % of control | dose: 25.0 mg/kg/injection, schedule: Q04DX003 (ip), vehicle: saline 96 % of control | dose: 50.0 mg/kg/injection, schedule: Q04DX003 (ip), vehicle: saline 87 % of control

BrC1C2C=CC(C2)C1Br (configuration not stated)
inactive: [2] 102 % of control | [3] 100 % of control | [4] 92 % of control

CCCCCCCCCCCCCc1nc(N)nc(NCCCC)n1
inactive: [5] 92 % of control | [6] 89 % of control | dose: 400.0 mg/kg/injection, schedule: Q04DX002 (ip), vehicle: Klucel (hydroxypropylcellulose) (HPC) 100 % of control

CC(=O)NCCc1ccc(S(=O)(=O)F)cc1
inactive: [7] 91 % of control | [8] 102 % of control

O=C(NC(CO)C(O)c1ccc([N+](=O)[O-])cc1)C(Cl)Cl (configuration not stated)
inactive: [9] 102 % of control | [10] 101 % of control | [11] 106 % of control

COc1cc([N+](=O)[O-])c2nc(C(Br)(Br)Br)ccc2c1[N+](=O)[O-]
inactive: dose: 50.0 mg/kg/injection, schedule: Q01DX001 (ip), vehicle: carboxymethylcellulose (CMC) 105 % of control | dose: 100.0 mg/kg/injection, schedule: Q01DX001 (ip), vehicle: carboxymethylcellulose (CMC) 111 % of control | dose: 200.0 mg/kg/injection, schedule: Q01DX001 (ip), vehicle: carboxymethylcellulose (CMC) 96 % of control | dose: 400.0 mg/kg/injection, schedule: Q01DX001 (ip), vehicle: carboxymethylcellulose (CMC) 103 % of control

C=CCCCCCCCCC(=O)NCCN1CCOCC1
inactive: [9] 101 % of control

C[N-]C.C[N-]C.[Cl][Pt+2][Cl]
inactive: dose: 100.0 mg/kg/injection, schedule: Q01DX001 (ip), vehicle: saline 113 % of control | dose: 100.0 mg/kg/injection, schedule: Q01DX009 (ip), vehicle: saline 100 % of control | dose: 200.0 mg/kg/injection, schedule: Q01DX001 (ip), vehicle: saline 107 % of control | dose: 200.0 mg/kg/injection, schedule: Q01DX009 (ip), vehicle: saline 88 % of control | dose: 400.0 mg/kg/injection, schedule: Q01DX001 (ip), vehicle: saline 119 % of control

CCN(/C=C1/SC(=S)NC1=O)CC
inactive: [12] 109 % of control | [7] 98 % of control | [8] 119 % of control

CC(C)N=Cc1ccccc1O.CC(C)N=Cc1ccccc1O.[Zn]
inactive: dose: 100.0 mg/kg/injection, schedule: Q01DX009 (ip), vehicle: saline sonified 91 % of control | [2] 88 % of control | dose: 200.0 mg/kg/injection, schedule: Q01DX009 (ip), vehicle: saline sonified 92 % of control | [3] 89 % of control | dose: 400.0 mg/kg/injection, schedule: Q01DX009 (ip), vehicle: saline sonified 96 % of control | [4] 93 % of control

C1CCC2[N-]CC3CCCCC3[N-]CC3CCCCC3[N-]CC3CCCCC3[N-]CC2C1.CO.[Co+3] (configuration not stated)
inactive: [5] 110 % of control | [6] 103 % of control

CC(=O)Nc1ccccc1.[Hg]
inactive: dose: 1.56 mg/kg/injection, schedule: Q01DX009 (ip), vehicle: saline with Tween-80 90 % of control | dose: 3.13 mg/kg/injection, schedule: Q01DX009 (ip), vehicle: saline with Tween-80 88 % of control

Cc1nc(N(C)C)c2cnn(-c3ccccc3)c2n1
inactive: [12] 106 % of control | dose: 100.0 mg/kg/injection, schedule: Q01DX001 (ip), vehicle: acetone 101 % of control | [7] 87 % of control | dose: 200.0 mg/kg/injection, schedule: Q01DX001 (ip), vehicle: acetone 97 % of control

Cn1ncc(C(=O)O)c1N
inactive: dose: 25.0 mg/kg/injection, schedule: Q01DX009 (ip), vehicle: saline with Tween-80 102 % of control | [12] 111 % of control | [7] 100 % of control | [8] 94 % of control | dose: 400.0 mg/kg/injection, schedule: Q01DX009 (ip), vehicle: saline with Tween-80 96 % of control

COC(=O)C1C2OC(C(Br)C2Br)C1C(=O)O (configuration not stated)
inactive: [9] 100 % of control | [10] 98 % of control | [11] 96 % of control

CCCCCCCCCCCc1cc(=O)n(-c2cc(Cl)ccc2Cl)n1C
inactive: [9] 98 % of control

O=C(CC(=Nc1ccccc1)c1ccccc1)c1ccccc1.O=C(CC(=Nc1ccccc1)c1ccccc1)c1ccccc1.[Cu]
inactive: dose: 50.0 mg/kg/injection, schedule: Q04DX003 (ip), vehicle: saline with Tween-80 89 % of control | [9] 90 % of control

Cc1cccc(OCCOC(=O)Nc2ccc(C)cc2[N+](=O)[O-])c1
inactive: [12] 97 % of control | [7] 87 % of control | [9] 103 % of control | [10] 94 % of control | [11] 99 % of control

O=C(CCC(=O)NO)NO
inactive: dose: 100.0 mg/kg/injection, schedule: Q04DX002 (ip), vehicle: saline 110 % of control | dose: 200.0 mg/kg/injection, schedule: Q04DX002 (ip), vehicle: saline 103 % of control | dose: 400.0 mg/kg/injection, schedule: Q04DX002 (ip), vehicle: saline 97 % of control

Cc1cc(C)c[n+](Cc2ccccc2Cl)c1
inactive: dose: 12.5 mg/kg/injection, schedule: Q01DX001 (ip), vehicle: saline 102 % of control | [1] 96 % of control

CC[N+]1(C)CCOCC1
inactive: dose: 75.0 mg/kg/injection, schedule: Q01DX001 (ip), vehicle: saline 96 % of control and 94 % of control and 107 % of control | dose: 150.0 mg/kg/injection, schedule: Q01DX001 (ip), vehicle: saline 94 % of control and 100 % of control and 98 % of control | dose: 300.0 mg/kg/injection, schedule: Q01DX001 (ip), vehicle: saline 96 % of control and 98 % of control

c1ccc(-c2c(-c3ccc4c(c3)CCCC4)c(-c3ccccc3)c3c(c2-c2ccccc2)-c2cccc4cccc-3c24)cc1
inactive: dose: 100.0 mg/kg/injection, schedule: Q01DX001 (ip), vehicle: saline with Tween-80 87 % of control | dose: 200.0 mg/kg/injection, schedule: Q01DX001 (ip), vehicle: saline with Tween-80 87 % of control | dose: 400.0 mg/kg/injection, schedule: Q01DX001 (ip), vehicle: saline with Tween-80 100 % of control
